Source: US20090053338A1, “Method for the preparation of phytoprogestogenic extracts from rhizoma ligusticum chuanxiong and uses thereof” (priority 2003, published 2009)
Each block holds one compound with its values, some of them ahead of it.

Key:
[1] = test system: male Sprague-Dawley rats; settings: subcutaneous; MPA 10 mg
Text: Each data point is the Mean±SEM of samples obtained from 6 different rats. Bars indicate progestogenic activity of original MPA and L.C. extract in-vitro. Progestogenic activity is expressed as fold increase compared to cells exposed to vehicle only.

[2] = test system: male Sprague-Dawley rats
Method: Sprague-Dawley rats were fasted overnight. Two mls of L.C. (2 g), MPA (10 mg) and vehicle (60% Ethanol) were orally fed to male rats using gavage tubes. Serum samples were collected from the tail vein at indicated time points, before and after L.C. administration. Bioactive progestogens were extracted from serum and tested for progestogenic activity using our receptor-based bioassay. Each data point is the Mean±SEM of samples obtained from 6 different rats. Bars indicate progestogenic activity of original MPA and L.C. extract in-vitro. Progestogenic activity is expressed as fold increase compared to cells exposed to vehicle only.
To determine the pharmacokinetics and bioequivalence of LC, we measured the progestogenic effect of rat serum sampled at defined time points after oral doses of LC (2 g/2 ml), MPA (10 mg/2 ml), and vehicle only (2 ml 60% ethanol). Serum samples were extracted and progesterone effect measured as in Example 12.

[3] = test system: subjects with transient ischemic attack; settings: cited from earlier work
[4] = target: T1, human progesterone receptor (PR-B) (Homo sapiens, UniProt P06401); assay: cell-based progesterone reporter gene assay (PR-B + PRE2-TATA-LUC luciferase) in HeLa cells; settings: peak activity at 10 μM
T1 construct: DNA encoding the full length human progesterone receptor (PR-B); expressed in transfected cells; host or cells: HeLa cells
T1 sequence (P06401 1-933): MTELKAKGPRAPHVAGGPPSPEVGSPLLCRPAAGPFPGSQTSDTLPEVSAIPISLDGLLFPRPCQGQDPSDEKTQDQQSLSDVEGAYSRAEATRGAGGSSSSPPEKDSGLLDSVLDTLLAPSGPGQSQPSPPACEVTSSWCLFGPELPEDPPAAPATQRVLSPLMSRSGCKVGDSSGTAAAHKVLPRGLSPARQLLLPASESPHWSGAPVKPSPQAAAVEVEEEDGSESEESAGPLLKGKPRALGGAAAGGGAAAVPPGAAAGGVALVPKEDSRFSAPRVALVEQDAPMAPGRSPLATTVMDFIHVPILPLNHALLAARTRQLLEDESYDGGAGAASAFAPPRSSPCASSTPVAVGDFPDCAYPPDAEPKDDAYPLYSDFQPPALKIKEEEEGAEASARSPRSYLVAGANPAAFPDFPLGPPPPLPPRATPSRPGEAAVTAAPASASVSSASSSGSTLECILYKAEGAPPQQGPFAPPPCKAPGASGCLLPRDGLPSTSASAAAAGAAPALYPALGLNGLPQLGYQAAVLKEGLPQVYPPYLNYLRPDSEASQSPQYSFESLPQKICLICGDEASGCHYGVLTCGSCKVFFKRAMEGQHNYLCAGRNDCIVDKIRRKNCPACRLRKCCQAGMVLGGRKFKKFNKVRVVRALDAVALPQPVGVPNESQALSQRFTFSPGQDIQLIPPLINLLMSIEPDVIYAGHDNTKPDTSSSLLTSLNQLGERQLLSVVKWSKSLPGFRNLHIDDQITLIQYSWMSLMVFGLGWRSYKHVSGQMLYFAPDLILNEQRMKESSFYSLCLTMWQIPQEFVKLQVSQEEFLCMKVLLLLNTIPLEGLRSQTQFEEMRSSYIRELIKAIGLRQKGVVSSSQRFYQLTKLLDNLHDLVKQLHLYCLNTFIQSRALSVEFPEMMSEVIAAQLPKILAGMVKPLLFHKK
Text: In the progestogen receptor assay of the invention, HeLa cells grown in 24-well microtiter plates were transiently co-transfected with two plasmids using lipofectamine. The first plasmid consisted of DNA encoding the full length human progesterone receptor (PR-B), and the second a progesterone reporter gene (PRE2-TATA-LUC) comprising a luciferase reporter gene driven by two copies of the progesterone response element from the aminotransferase gene. […] Replicate wells were exposed to vehicle only (ethanol) and used as negative controls. After the period of incubation, cells were rinsed with PBS buffer, lysis buffer (Promega Corp) was added, and cell lysates collected for measurement of luciferase activity. Progestogenic activity of the ligands was expressed as fold-increase in luciferase activity compared with control cells exposed to vehicle only. All data points were in triplicate. […] To begin the search for phyto-progestogens in Traditional Chinese herbal medicines, The Pharmacopoeia of the People's Republic of China (1997) was consulted and 13 herbs reported to have “uterotonic activity” were selected for screening. […] The herbal residues were re-extracted a second time with the same solvent for 2-3 hours. […] Dried extracts were weighed and re-suspended in 100% ethanol or methanol to a concentration 50 mg/ml.

[5] = test system: patients with acute cerebral infarction; settings: cited from earlier work

Compound: CC(=O)O[C@]1(C(C)=O)CC[C@H]2[C@@H]3C[C@H](C)C4=CC(=O)CC[C@]4(C)[C@H]3CC[C@@]21C [MPA, 6α-methyl-17α-hydroxy-progesterone acetate]
peak progestogenic activity versus serum from rats administered vehicle only [1]: about 5 fold
maintenance of peak / high levels of progestogenic effect ([2]; male, Sprague-Dawley, rat, in vivo, po): maintained throughout the 24 hour of sampling
peak progesterone activity in words ([2]; oral): comparable to that observed with saturating doses of progesterone in-vitro
serum activity versus baseline of rats administered vehicle only ([2]; oral, MPA 10 mg/2 ml): about 5 fold

Compound: CC(=O)Oc1ccccc1C(=O)O [aspirin]
total effective rate [3]: 61.7%

increase in hormonal activity over controls exposed to vehicle only at peak activity [4]: 300 fold
Compound: CC(=O)O[C@]1(C(C)=O)CC[C@H]2[C@@H]3C=C(C)C4=CC(=O)CC[C@]4(C)[C@H]3CC[C@@]21C [megesterol acetate]

increase in hormonal activity over controls exposed to vehicle only at peak activity [4]: 300 fold
Compound: CC(=O)[C@H]1CC[C@H]2[C@@H]3CCC4=CC(=O)CC[C@]4(C)[C@H]3CC[C@]12C [progesterone]

Compound: dextran 40
total therapeutic efficacy rate [5]: 62.8%
